The values that follow come from ChEMBL document CHEMBL5143749, “Discovery of Insulin/GLP-1/Glucagon Triagonists for the Treatment of Diabetes and Obesity” (ACS Med Chem Lett, 2022).

Experiment [1] has as its target Glucagon-like peptide 1 receptor (Homo sapiens, UniProt P43220). In words: Agonist activity at human GLP1R expressed in frozen cells assessed as measuring the cAMP level incubated for 1 hr by HitHunter chemiluminescence based assay. Format: functional, cell-based.
Another experiment is filed under the species Homo sapiens. Description: Selectivity ratio of EC50 for human […] expressed in frozen cells to EC50 for human GLP1R expressed in frozen cells. Type of experiment: cell-based.
The target in a further experiment is Glucagon receptor (Homo sapiens, UniProt P47871). Description: Agonist activity at human GCGR expressed in frozen cells assessed as measuring the cAMP level incubated for 1 hr by HitHunter chemiluminescence based assay. Format: functional, cell-based.
Chain of Glucagon receptor (P47871 whole entry): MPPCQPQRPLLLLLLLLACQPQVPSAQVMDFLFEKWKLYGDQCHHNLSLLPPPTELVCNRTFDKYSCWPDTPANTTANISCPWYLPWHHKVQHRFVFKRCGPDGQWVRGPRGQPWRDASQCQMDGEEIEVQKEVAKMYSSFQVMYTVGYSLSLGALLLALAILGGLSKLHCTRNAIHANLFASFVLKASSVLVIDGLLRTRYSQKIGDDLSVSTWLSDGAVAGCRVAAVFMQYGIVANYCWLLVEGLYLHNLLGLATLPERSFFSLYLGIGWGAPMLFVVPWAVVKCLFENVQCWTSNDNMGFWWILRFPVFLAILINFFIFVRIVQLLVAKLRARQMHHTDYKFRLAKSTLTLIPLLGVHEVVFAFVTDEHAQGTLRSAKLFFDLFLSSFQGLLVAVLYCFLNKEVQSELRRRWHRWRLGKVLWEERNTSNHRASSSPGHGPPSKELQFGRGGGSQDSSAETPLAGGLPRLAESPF

Chain of Glucagon-like peptide 1 receptor (P43220 whole entry): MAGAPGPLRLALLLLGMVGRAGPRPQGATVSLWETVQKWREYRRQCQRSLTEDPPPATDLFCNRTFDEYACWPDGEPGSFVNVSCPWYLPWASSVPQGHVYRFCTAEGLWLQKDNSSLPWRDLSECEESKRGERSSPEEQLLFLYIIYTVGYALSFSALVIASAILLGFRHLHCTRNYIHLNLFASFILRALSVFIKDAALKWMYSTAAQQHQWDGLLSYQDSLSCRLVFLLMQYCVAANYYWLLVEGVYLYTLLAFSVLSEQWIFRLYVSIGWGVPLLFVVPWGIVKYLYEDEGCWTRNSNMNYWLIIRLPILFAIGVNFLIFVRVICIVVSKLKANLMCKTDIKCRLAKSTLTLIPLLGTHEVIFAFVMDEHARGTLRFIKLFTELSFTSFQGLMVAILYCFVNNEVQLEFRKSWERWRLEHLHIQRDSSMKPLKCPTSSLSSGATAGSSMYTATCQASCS

`CCCCCCCCCCCCCCCC(=O)N[C@@H](CCC(=O)N[C@@H](CCC(=O)NCCCC[C@H](NC(=O)[C@H](CC(=O)O)NC(=O)[C@H](CO)NC(=O)[C@@H](NC(=O)[C@H](Cc1ccccc1)NC(=O)[C@@H](NC(=O)CNC(=O)[C@H](CCC(N)=O)NC(=O)[C@@H](CO)NC(=O)[C@@H](N)Cc1c[nH]cn1)[C@@H](C)O)[C@@H](C)O)C(=O)N[C@@H](CO)C(=O)N[C@@H](CC(C)C)C(=O)N[C@@H](Cc1ccc(O)cc1)C(=O)N[C@@H](CC(C)C)C(=O)N[C@@H](CC(=O)O)C(=O)NC(C)(C)C(=O)N[C@@H](CCCNC(=N)N)C(=O)N[C@@H](C)C(=O)N[C@@H](C)C(=O)N[C@@H](CCC(N)=O)C(=O)N[C@@H](CC(=O)O)C(=O)N[C@@H](Cc1ccccc1)C(=O)N[C@H](C(=O)N[C@@H](CCC(N)=O)C(=O)N[C@@H](Cc1c[nH]c2ccccc12)C(=O)N[C@@H](CC(C)C)C(=O)N[C@@H](CC(C)C)C(=O)N[C@@H](CC(N)=O)C(=O)N[C@H](C(=O)N[C@@H](CCCCN=[N+]=[N-])C(=O)N[C@@H](CCC(N)=O)C(=O)O)[C@@H](C)O)C(C)C)C(=O)O)C(=O)O`: the EC50 in experiment [1] turned out to be 1.04 nM.

For the molecule `CCCCCCCCCCCCCCCC(=O)N[C@@H](CCC(=O)N[C@@H](CCC(=O)NCCCC[C@H](NC(=O)[C@H](CC(=O)O)NC(=O)[C@H](CO)NC(=O)[C@@H](NC(=O)[C@H](Cc1ccccc1)NC(=O)[C@@H](NC(=O)CNC(=O)[C@H](CCC(N)=O)NC(=O)C(C)(C)NC(=O)[C@@H](N)Cc1c[nH]cn1)[C@@H](C)O)[C@@H](C)O)C(=O)N[C@@H](CO)C(=O)N[C@@H](CCCCN)C(=O)N[C@@H](Cc1ccc(O)cc1)C(=O)N[C@@H](CC(C)C)C(=O)N[C@@H](CC(=O)O)C(=O)NC(C)(C)C(=O)N[C@@H](CCCNC(=N)N)C(=O)N[C@@H](C)C(=O)N[C@@H](C)C(=O)N[C@@H](CCC(N)=O)C(=O)N[C@@H](CC(=O)O)C(=O)N[C@@H](Cc1ccccc1)C(=O)N[C@H](C(=O)N[C@@H](CCC(N)=O)C(=O)N[C@@H](Cc1c[nH]c2ccccc12)C(=O)N[C@@H](CC(C)C)C(=O)N[C@@H](CC(C)C)C(=O)N[C@@H](CC(=O)O)C(=O)N[C@H](C(=O)N[C@@H](CCCCN)C(=O)N[C@@H](CCCCN=[N+]=[N-])C(N)=O)[C@@H](C)O)C(C)C)C(=O)O)C(=O)O`, the Ratio EC50 in the experiment filed under Homo sapiens turned out to be 1.4.

As to `CCCCCCCCCCCCCCCC(=O)N[C@@H](CCC(=O)N[C@@H](CCC(=O)NCCCC[C@H](NC(=O)[C@H](CC(=O)O)NC(=O)[C@H](CO)NC(=O)[C@@H](NC(=O)[C@H](Cc1ccccc1)NC(=O)[C@@H](NC(=O)CNC(=O)[C@H](CCC(N)=O)NC(=O)[C@@H](CO)NC(=O)[C@@H](N)Cc1c[nH]cn1)[C@@H](C)O)[C@@H](C)O)C(=O)N[C@@H](CO)C(=O)N[C@@H](CCCCN)C(=O)N[C@@H](Cc1ccc(O)cc1)C(=O)N[C@@H](CC(C)C)C(=O)N[C@@H](CC(=O)O)C(=O)N[C@@H](CCC(=O)O)C(=O)N[C@@H](CCCNC(=N)N)C(=O)N[C@@H](C)C(=O)N[C@@H](C)C(=O)N[C@@H](CCC(N)=O)C(=O)N[C@@H](CCCCN=[N+]=[N-])C(=O)N[C@@H](Cc1ccccc1)C(=O)N[C@H](C(=O)N[C@@H](CCC(N)=O)C(=O)N[C@@H](Cc1c[nH]c2ccccc12)C(=O)N[C@@H](CC(C)C)C(=O)N[C@@H](CC(C)C)C(=O)N[C@@H](CC(=O)O)C(=O)N[C@H](C(N)=O)[C@@H](C)O)C(C)C)C(=O)O)C(=O)O`, the values for the EC50 (in experiment [1]; on Glucagon receptor) were 0.028 nM and 0.013 nM, respectively. Also, the Ratio EC50 in the experiment filed under Homo sapiens stood at 0.5.

For the molecule `CCCCCCCCCCCCCCCC(=O)N[C@@H](CCC(=O)N[C@@H](CCC(=O)NCCCC[C@H](NC(=O)[C@H](CC(=O)O)NC(=O)[C@H](CO)NC(=O)[C@@H](NC(=O)[C@H](Cc1ccccc1)NC(=O)[C@@H](NC(=O)CNC(=O)[C@H](CCC(N)=O)NC(=O)[C@@H](CO)NC(=O)[C@@H](N)Cc1cnc[nH]1)[C@@H](C)O)[C@@H](C)O)C(=O)N[C@@H](CO)C(=O)N[C@@H](CCCCN)C(=O)N[C@@H](Cc1ccc(O)cc1)C(=O)N[C@@H](CC(C)C)C(=O)N[C@@H](CC(=O)O)C(=O)N[C@@H](C)C(=O)N[C@@H](CCCNC(=N)N)C(=O)N[C@@H](C)C(=O)N[C@@H](C)C(=O)N[C@@H](CCC(N)=O)C(=O)N[C@@H](CC(=O)O)C(=O)N[C@@H](Cc1ccccc1)C(=O)N[C@H](C(=O)N[C@@H](CCC(N)=O)C(=O)N[C@@H](Cc1c[nH]c2ccccc12)C(=O)N[C@@H](CC(C)C)C(=O)N[C@@H](CC(C)C)C(=O)N[C@@H](CC(=O)O)C(=O)N[C@H](C(N)=O)[C@@H](C)O)C(C)C)C(=O)O)C(=O)O`, the Ratio EC50 in the experiment filed under Homo sapiens came to 0.9.

In the case of `CCCCCCCCCCCCCCCC(=O)N[C@@H](CCC(=O)N[C@@H](CCC(=O)NCCCC[C@H](NC(=O)[C@H](CC(=O)O)NC(=O)[C@H](CO)NC(=O)[C@@H](NC(=O)[C@H](Cc1ccccc1)NC(=O)[C@@H](NC(=O)CNC(=O)[C@H](CCC(N)=O)NC(=O)[C@@H](CO)NC(=O)[C@@H](N)Cc1c[nH]cn1)[C@@H](C)O)[C@@H](C)O)C(=O)N[C@@H](CO)C(=O)N[C@@H](CCCCN)C(=O)N[C@@H](Cc1ccc(O)cc1)C(=O)N[C@@H](CC(C)C)C(=O)N[C@@H](CC(=O)O)C(=O)N[C@@H](CCC(=O)O)C(=O)N[C@@H](CCCNC(=N)N)C(=O)N[C@@H](C)C(=O)N[C@@H](C)C(=O)N[C@@H](CCCCNC(=O)COCCOCCNC(=O)CCCCN=[N+]=[N-])C(=O)N[C@@H](CC(=O)O)C(=O)N[C@@H](Cc1ccccc1)C(=O)N[C@H](C(=O)N[C@@H](CCC(N)=O)C(=O)N[C@@H](Cc1c[nH]c2ccccc12)C(=O)N[C@@H](CC(C)C)C(=O)N[C@@H](CC(C)C)C(=O)N[C@@H](CC(=O)O)C(=O)N[C@H](C(N)=O)[C@@H](C)O)C(C)C)C(=O)O)C(=O)O`, the Ratio EC50 in the experiment listed under Homo sapiens was 0.8.
